Test results reported in ChEMBL document CHEMBL4630902 (2021).
Each block holds one molecule with its values, some of them ahead of it.

Assays:
[1] = biological target: D(4) dopamine receptor (Homo sapiens) (UniProt P21917); details: Compound concentration 10.0 uM
[2] = biological target: 5-hydroxytryptamine receptor 7 (Homo sapiens) (UniProt P34969); details: Compound concentration 10.0 uM
[3] = biological target: Alpha-1B adrenergic receptor (Homo sapiens) (UniProt P35368); details: Compound concentration 10.0 uM
[4] = biological target: D(3) dopamine receptor (Homo sapiens) (UniProt P35462); details: Compound concentration 10.0 uM
[5] = biological target: 5-hydroxytryptamine receptor 1B (Homo sapiens) (UniProt P28222); details: Compound concentration 10.0 uM
[6] = biological target: 5-hydroxytryptamine receptor 6 (Homo sapiens) (UniProt P50406); details: Compound concentration 10.0 uM
[7] = biological target: 5-hydroxytryptamine receptor 2A (Homo sapiens) (UniProt P28223); details: Compound concentration 10.0 uM
[8] = biological target: Muscarinic acetylcholine receptor M2 (Homo sapiens) (UniProt P08172); details: Compound concentration 10.0 uM
[9] = biological target: Delta-type opioid receptor (Homo sapiens) (UniProt P41143); details: Compound concentration 10.0 uM
[10] = biological target: Histamine H2 receptor (Homo sapiens) (UniProt P25021); details: Compound concentration 10.0 uM
[11] = biological target: Sigma intracellular receptor 2 (Homo sapiens) (UniProt Q5BJF2); details: Compound concentration 10.0 uM
[12] = biological target: Beta-2 adrenergic receptor (Homo sapiens) (UniProt P07550); details: Compound concentration 10.0 uM
[13] = biological target: 5-hydroxytryptamine receptor 3A (Homo sapiens) (UniProt P46098); details: Compound concentration 10.0 uM
[14] = biological target: Kappa-type opioid receptor (Homo sapiens) (UniProt P41145); details: Compound concentration 10.0 uM
[15] = biological target: 5-hydroxytryptamine receptor 1D (Homo sapiens) (UniProt P28221); details: Compound concentration 10.0 uM
[16] = biological target: T1, GABA-A receptor; anion channel (Rattus norvegicus) (UniProt O09028+P15431+P18506+P18508+P19969+P20236+P23574+P23576+P28471+P28473+P30191+P62813+P63079+P63138+Q91ZM7+Q9ES14); details: Compound concentration 10.0 uM
[17] = biological target: Histamine H1 receptor (Homo sapiens) (UniProt P35367); details: Compound concentration 10.0 uM
[18] = biological target: Beta-1 adrenergic receptor (Homo sapiens) (UniProt P08588); details: Compound concentration 10.0 uM
[19] = biological target: Alpha-2C adrenergic receptor (Homo sapiens) (UniProt P18825); details: Compound concentration 10.0 uM
[20] = biological target: Alpha-2A adrenergic receptor (Homo sapiens) (UniProt P08913); details: Compound concentration 10.0 uM
[21] = biological target: D(1B) dopamine receptor (Homo sapiens) (UniProt P21918); details: Compound concentration 10.0 uM
[22] = biological target: 5-hydroxytryptamine receptor 1A (Homo sapiens) (UniProt P08908); details: Compound concentration 10.0 uM
[23] = biological target: Muscarinic acetylcholine receptor M5 (Homo sapiens) (UniProt P08912); details: Compound concentration 10.0 uM
[24] = biological target: T1, GABA-A receptor; anion channel (Rattus norvegicus); details: Compound concentration 10.0 uM; remark: listed apart in the source
[25] = biological target: Muscarinic acetylcholine receptor M1 (Homo sapiens) (UniProt P11229); details: Compound concentration 10.0 uM
[26] = biological target: Mu-type opioid receptor (Homo sapiens) (UniProt P35372); details: Compound concentration 10.0 uM
[27] = biological target: Alpha-1A adrenergic receptor (Homo sapiens) (UniProt P35348); details: Compound concentration 10.0 uM
[28] = biological target: D(1A) dopamine receptor (Homo sapiens) (UniProt P21728); details: Compound concentration 10.0 uM
[29] = biological target: Sigma non-opioid intracellular receptor 1 (Homo sapiens) (UniProt Q99720); details: Compound concentration 10.0 uM
[30] = biological target: Muscarinic acetylcholine receptor M4 (Homo sapiens) (UniProt P08173); details: Compound concentration 10.0 uM
[31] = biological target: 5-hydroxytryptamine receptor 1E (Homo sapiens) (UniProt P28566); details: Compound concentration 10.0 uM
[32] = biological target: Histamine H3 receptor (Homo sapiens) (UniProt Q9Y5N1); details: Compound concentration 10.0 uM
[33] = biological target: Muscarinic acetylcholine receptor M3 (Homo sapiens) (UniProt P20309); details: Compound concentration 10.0 uM
[34] = biological target: Alpha-1D adrenergic receptor (Homo sapiens) (UniProt P25100); details: Compound concentration 10.0 uM
[35] = biological target: Beta-3 adrenergic receptor (Homo sapiens) (UniProt P13945); details: Compound concentration 10.0 uM
[36] = biological target: Alpha-2B adrenergic receptor (Homo sapiens) (UniProt P18089); details: Compound concentration 10.0 uM
[37] = biological target: 5-hydroxytryptamine receptor 2B (Homo sapiens) (UniProt P41595); details: Compound concentration 10.0 uM
[38] = biological target: Histamine H4 receptor (Homo sapiens) (UniProt Q9H3N8); details: Compound concentration 10.0 uM
[39] = BET mutant TR-FRET assay (BRDT BD2); parameters: species or system Homo sapiens
[40] = biological target: 5-hydroxytryptamine receptor 2C (Homo sapiens) (UniProt P28335); details: Compound concentration 10.0 uM
[41] = biological target: D(2) dopamine receptor (Homo sapiens) (UniProt P14416); details: Compound concentration 10.0 uM
[42] = biological target: Sodium-dependent noradrenaline transporter (Homo sapiens) (UniProt P23975); details: Compound concentration 10.0 uM
[43] = biological target: Sodium-dependent serotonin transporter (Homo sapiens) (UniProt P31645); details: Compound concentration 10.0 uM
Rattus norvegicus = organism: Rattus norvegicus; details: Compound concentration 10.0 uM
[44] = biological target: 5-hydroxytryptamine receptor 5A (Homo sapiens) (UniProt P47898); details: Compound concentration 10.0 uM

Alpha-2A adrenergic receptor (Homo sapiens), sequence (P08913 whole entry): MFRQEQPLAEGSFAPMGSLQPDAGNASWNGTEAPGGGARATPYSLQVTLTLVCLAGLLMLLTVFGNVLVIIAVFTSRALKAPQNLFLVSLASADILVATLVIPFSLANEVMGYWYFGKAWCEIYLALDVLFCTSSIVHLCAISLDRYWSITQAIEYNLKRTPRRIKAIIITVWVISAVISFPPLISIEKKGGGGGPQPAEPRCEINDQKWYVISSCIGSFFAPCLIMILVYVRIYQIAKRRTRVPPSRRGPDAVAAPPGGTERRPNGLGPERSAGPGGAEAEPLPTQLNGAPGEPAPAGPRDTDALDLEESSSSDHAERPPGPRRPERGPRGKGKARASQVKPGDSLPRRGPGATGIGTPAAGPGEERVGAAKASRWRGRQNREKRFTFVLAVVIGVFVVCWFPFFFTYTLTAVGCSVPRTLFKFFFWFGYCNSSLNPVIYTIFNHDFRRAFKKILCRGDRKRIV
Histamine H3 receptor (Homo sapiens), sequence (Q9Y5N1 whole entry): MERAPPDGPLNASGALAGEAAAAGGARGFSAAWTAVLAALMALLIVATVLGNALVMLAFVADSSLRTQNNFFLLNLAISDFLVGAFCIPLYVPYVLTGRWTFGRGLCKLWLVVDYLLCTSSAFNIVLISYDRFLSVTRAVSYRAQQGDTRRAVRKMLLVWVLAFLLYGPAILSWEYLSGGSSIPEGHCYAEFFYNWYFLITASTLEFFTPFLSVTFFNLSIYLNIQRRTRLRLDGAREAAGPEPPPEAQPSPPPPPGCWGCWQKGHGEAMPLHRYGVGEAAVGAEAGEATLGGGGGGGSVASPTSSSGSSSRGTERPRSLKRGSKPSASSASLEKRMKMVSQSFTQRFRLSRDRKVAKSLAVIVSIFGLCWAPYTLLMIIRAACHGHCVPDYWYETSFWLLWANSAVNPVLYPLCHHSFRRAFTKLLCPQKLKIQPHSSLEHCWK
5-hydroxytryptamine receptor 7 (Homo sapiens), sequence (P34969 whole entry): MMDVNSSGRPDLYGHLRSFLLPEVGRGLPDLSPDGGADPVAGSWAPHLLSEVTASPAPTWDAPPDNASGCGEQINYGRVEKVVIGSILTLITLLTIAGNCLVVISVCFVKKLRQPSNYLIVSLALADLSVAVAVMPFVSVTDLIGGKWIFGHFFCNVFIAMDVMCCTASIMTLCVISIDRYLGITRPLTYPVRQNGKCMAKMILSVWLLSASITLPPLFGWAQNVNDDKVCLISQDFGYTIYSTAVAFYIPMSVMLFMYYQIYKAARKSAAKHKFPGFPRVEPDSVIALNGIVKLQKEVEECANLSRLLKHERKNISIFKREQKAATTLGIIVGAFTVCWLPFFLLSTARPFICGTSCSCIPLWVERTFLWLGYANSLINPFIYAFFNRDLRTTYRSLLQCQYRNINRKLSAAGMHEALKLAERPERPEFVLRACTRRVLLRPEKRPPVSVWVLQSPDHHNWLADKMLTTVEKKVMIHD
5-hydroxytryptamine receptor 2A (Homo sapiens), sequence (P28223 whole entry): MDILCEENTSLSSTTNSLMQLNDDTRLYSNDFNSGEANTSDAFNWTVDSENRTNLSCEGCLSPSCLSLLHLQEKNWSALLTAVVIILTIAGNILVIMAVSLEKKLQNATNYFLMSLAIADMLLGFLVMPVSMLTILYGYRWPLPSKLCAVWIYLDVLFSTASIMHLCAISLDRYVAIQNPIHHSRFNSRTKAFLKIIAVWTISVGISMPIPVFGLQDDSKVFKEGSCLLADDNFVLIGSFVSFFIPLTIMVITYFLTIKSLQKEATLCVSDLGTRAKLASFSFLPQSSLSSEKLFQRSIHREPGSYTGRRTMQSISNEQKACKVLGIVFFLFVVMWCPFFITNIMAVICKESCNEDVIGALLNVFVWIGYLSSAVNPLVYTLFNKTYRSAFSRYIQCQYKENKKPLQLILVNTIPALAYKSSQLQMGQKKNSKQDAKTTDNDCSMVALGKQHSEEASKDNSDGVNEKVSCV
Beta-2 adrenergic receptor (Homo sapiens), sequence (P07550 whole entry, looked up): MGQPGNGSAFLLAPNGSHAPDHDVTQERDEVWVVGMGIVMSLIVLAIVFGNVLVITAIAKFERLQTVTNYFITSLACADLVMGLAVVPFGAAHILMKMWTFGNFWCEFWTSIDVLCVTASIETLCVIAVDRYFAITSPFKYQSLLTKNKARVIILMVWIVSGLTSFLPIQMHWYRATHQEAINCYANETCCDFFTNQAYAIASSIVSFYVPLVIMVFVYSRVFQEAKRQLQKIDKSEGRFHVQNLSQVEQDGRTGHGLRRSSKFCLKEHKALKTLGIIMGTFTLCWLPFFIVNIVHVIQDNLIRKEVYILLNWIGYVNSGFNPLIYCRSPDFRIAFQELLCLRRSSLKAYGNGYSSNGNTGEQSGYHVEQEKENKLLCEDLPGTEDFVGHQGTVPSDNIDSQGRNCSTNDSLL
5-hydroxytryptamine receptor 1D (Homo sapiens), sequence (P28221 whole entry): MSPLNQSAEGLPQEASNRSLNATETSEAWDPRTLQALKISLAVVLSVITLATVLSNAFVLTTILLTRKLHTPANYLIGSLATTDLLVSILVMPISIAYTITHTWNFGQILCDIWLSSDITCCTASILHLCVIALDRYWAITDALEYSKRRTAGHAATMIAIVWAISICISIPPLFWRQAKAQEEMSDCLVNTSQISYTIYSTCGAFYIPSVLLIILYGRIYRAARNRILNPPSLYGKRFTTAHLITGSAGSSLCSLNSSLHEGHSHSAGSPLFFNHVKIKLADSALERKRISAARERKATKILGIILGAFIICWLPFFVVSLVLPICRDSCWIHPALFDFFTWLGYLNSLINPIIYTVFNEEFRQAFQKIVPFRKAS
Muscarinic acetylcholine receptor M5 (Homo sapiens), sequence (P08912 whole entry): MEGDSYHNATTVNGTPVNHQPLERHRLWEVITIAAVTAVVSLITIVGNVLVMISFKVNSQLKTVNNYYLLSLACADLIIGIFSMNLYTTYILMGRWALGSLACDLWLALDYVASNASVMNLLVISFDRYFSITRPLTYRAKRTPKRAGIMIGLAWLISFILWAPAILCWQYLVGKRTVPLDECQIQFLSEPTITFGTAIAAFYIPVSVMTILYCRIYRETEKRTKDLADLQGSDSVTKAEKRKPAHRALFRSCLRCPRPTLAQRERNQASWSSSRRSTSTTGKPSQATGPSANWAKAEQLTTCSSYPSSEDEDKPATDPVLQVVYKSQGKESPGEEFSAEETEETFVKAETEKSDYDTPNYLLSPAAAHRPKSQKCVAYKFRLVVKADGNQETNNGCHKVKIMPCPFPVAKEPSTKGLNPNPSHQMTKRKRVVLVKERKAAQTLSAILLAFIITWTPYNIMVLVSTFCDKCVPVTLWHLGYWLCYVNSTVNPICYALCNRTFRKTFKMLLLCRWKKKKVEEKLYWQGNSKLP
Delta-type opioid receptor (Homo sapiens), sequence (P41143 whole entry): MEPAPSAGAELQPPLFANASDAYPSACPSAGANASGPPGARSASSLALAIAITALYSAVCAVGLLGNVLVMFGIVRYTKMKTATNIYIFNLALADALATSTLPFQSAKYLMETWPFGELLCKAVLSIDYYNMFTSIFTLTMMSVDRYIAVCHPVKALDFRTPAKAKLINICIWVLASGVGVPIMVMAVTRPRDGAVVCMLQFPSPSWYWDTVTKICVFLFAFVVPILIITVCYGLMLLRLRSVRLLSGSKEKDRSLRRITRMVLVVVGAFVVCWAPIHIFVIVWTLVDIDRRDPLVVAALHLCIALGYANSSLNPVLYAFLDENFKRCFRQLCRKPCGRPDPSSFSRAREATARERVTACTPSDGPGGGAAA
5-hydroxytryptamine receptor 3A (Homo sapiens), sequence (P46098 whole entry): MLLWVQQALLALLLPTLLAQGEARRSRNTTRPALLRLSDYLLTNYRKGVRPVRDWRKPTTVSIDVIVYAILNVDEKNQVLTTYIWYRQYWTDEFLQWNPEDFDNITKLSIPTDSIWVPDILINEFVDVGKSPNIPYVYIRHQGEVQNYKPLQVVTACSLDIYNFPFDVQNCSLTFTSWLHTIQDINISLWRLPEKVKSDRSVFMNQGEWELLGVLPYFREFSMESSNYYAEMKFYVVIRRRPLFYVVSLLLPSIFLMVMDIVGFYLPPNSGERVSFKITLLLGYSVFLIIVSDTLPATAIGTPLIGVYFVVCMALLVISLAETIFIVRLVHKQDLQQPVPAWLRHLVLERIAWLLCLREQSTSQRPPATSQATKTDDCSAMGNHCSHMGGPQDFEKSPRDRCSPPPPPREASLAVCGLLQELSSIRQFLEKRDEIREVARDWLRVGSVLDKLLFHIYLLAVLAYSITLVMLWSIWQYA
Muscarinic acetylcholine receptor M2 (Homo sapiens), sequence (P08172 whole entry): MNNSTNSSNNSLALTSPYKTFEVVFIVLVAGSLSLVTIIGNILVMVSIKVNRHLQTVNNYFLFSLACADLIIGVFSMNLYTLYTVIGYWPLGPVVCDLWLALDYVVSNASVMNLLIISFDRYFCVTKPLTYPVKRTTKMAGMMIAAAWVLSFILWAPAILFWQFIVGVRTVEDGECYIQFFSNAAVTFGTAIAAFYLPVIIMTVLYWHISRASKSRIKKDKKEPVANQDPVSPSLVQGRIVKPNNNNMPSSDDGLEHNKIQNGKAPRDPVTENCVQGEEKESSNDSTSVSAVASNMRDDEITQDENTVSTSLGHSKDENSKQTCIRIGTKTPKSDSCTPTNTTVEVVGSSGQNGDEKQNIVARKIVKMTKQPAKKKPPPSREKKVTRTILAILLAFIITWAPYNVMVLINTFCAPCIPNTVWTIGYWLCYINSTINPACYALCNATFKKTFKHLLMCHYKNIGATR
Alpha-2B adrenergic receptor (Homo sapiens), sequence (P18089 whole entry): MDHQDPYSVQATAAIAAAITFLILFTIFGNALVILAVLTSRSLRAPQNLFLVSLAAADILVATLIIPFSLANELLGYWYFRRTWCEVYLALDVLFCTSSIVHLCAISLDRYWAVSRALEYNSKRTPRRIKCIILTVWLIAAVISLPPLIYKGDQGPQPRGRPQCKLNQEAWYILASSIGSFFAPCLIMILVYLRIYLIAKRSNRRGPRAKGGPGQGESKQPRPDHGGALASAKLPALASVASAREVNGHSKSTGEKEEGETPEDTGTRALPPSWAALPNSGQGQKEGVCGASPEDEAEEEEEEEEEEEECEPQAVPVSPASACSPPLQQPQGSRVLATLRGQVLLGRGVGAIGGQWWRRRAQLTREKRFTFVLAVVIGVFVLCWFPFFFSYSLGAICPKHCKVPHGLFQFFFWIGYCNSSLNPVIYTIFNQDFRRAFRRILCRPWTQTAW

- inhibition [1]: 17.7%
- inhibition [2]: 1.31%
- inhibition [3]: -0.98%
- inhibition [4]: 4.11%
- inhibition [5]: -8.28%
- inhibition [6]: -1.21%
- inhibition [7]: 11.6%
- inhibition [8]: -7.3%
- inhibition [9]: 17.1%
- inhibition [10]: 4.49%
- inhibition [11]: 35.6%
- inhibition [12]: 9.35%
- inhibition [13]: 10.6%
- inhibition [14]: 41.1%
- inhibition [15]: -8.07%
- inhibition [16]: 74.2%
- inhibition [17]: -1.58%
- inhibition [18]: 6.93%
- inhibition [19]: 7.66%
- inhibition [20]: 13.8%
- inhibition [21]: -7.16%
- inhibition [22]: 14.9%
- inhibition [23]: 18%
- inhibition [24]: 14.5%
- inhibition [25]: 12.1%
- inhibition [26]: 4.77%
- inhibition [27]: 7.39%
- inhibition [28]: -6.73%
- inhibition [29]: 10.2%
- inhibition [30]: 6.19%
- inhibition [31]: 0.03%
- inhibition [32]: -5.65%
- inhibition [33]: 12.6%
- inhibition [34]: -7.87%
- inhibition [35]: 31%
- inhibition [36]: 22.8%
Structure (SMILES): CNC(=O)c1cc(C(=O)N[C@H]2[C@@H]3COC[C@@H]32)cc2c1O[C@@H](CF)[C@@H]2c1ccccc1

- inhibition [1]: 81.6%
- inhibition [2]: 13.6%
- inhibition [3]: 1.49%
- inhibition [4]: 81.8%
- inhibition [5]: -0.1%
- inhibition [6]: 16.8%
- inhibition [7]: 13.4%
- inhibition [37]: 28.2%
- inhibition [8]: -5.52%
- inhibition [9]: 2.46%
- inhibition [10]: -3.94%
- inhibition [11]: 14.3%
- inhibition [12]: 17.9%
- inhibition [13]: 20.2%
- inhibition [14]: 1.22%
- inhibition [38]: 9.36%
- inhibition [15]: -5.14%
- inhibition [16]: 30.2%
- pIC50 [39]: 7.4
- inhibition [40]: 22.2%
- inhibition [41]: 60.9%
- inhibition [18]: 6.03%
- inhibition [19]: 8.26%
- inhibition [20]: 1.67%
- inhibition [21]: 28.3%
- inhibition [22]: 8.96%
- inhibition [23]: 2.23%
- inhibition [24]: 4.07%
- inhibition [26]: -5.14%
- inhibition [42]: 0.32%
- inhibition [43]: 27.2%
- inhibition [27]: -4.55%
- inhibition [28]: 9.7%
- inhibition (Rattus norvegicus): 9.06%
- inhibition [29]: 28.4%
- inhibition [30]: 2.78%
- inhibition [32]: -9.57%
- inhibition [33]: 11.2%
- inhibition [34]: 3.51%
- inhibition [44]: 12.5%
- inhibition [35]: 15.5%
- inhibition [36]: 12.5%
Structure (SMILES): CNC(=O)c1cc(C(=O)N[C@H]2[C@@H]3COC[C@@H]32)cc2c1O[C@H](CF)[C@H]2c1ccccc1 [GSK973]
